Laboratory results: patent US20080139407A1, “Segment synthesis” (PEPSCAN SYSTEMS B. V., priority 2000, published 2008)
*: point of attachment. BrAc = O=C(CBr)*

Legend:
monoclonal antibody-03 = assay: Control test of peptide-covered surface with monoclonal antibody-03, indirect fluorescence detection; type: binding; conditions: peptide present on the whole square
monoclonal antibody-01 = assay: Spotted peptide constructs tested against monoclonal antibody-01, indirect fluorescence detection; type: binding; conditions: peptides spotted in 1 μl to 0.25 nl
Protocol: FIG. 2. A) Microturisation of spots of peptide constructs. Constructs were tested against the same monoclonal antibody-01 as was tested in FIG. 1. Binding was made visible using indirect fluorescence detection. Peptide 1, sequence with an N-terminal bromoacetamide, was synthesised on the complete surface. Peptide construct 6-1 is the same as construct 125 in FIG. 1. Peptides 2 up to 8, containing a cysteine residue, were spotted in different volumes ranging from 1 μl to 0.25 nl using piezo drop-on-demand technology. […] The identified epitope is shown in black. The disclosed peptide is shown in SEQ ID NO: 7.
The bromoacetamide peptide was covalently bound to a functionalised polypropylene/polyacrylic acid solid support in 3 μl wells as described above. The cysteine-containing sequences were synthesised on and cleaved from functionalised polyethylene pins as described above. […] On a surface of a solid support peptides are synthesized with a bromoacetamide group at the N-terminus as described above. […]

[1] = test system: biotinylated DNA (3′-TATTCTCCGGACGAGTACCGTGAAGGGTC-Biotin-5′); assay: Binding of biotinylated DNA by the construct of two PNAs, detected with streptavidin-horse radish peroxidase and ABTS; conditions: miniwell setup, polypropylene surface
From the text: FIG. 10. A) Schematic presentation of a DNA/RNA scan. The constructs are scanned with a labeled protein, for example a regulatory protein, or another DNA or PNA strand (top), or alternatively overlapping peptides are scanned with biotynilated RNA, DNA or PNA (bottom). The oligonucleotide sequences are shown in SEQ ID NOS 661-666, respectively, in order of appearance. B) Working example with biotinylated DNA on construct of two PNA's.
Chemistry in short: Detection of the binding of Biotinylated DNA by the construct of two PNAs. In miniwell setup the polypropylene (PP) surface of the miniwells was functionalized with carboxyl groups using gamma irradiation (12 kGy) in the presence of CuSO4 and 6% acrylic acid. Subsequently the PP surface was amino group functionalized (using BocHMDA/DCC/HOBt with subsequent removal of the Boc group with TFA). Next the amino groups were converted in thiol groups by coupling of Fmoc-Cys-(Trt) using DCC/HOBt, removal of the Fmoc group, acetylation of the amino group followed by removal of the Trt by TFA/triethyl silan. To this PP surface functionalized with thiol groups a PNA (PNA1) was coupled which contains N-terminal a bromoacetyl group and C-terminal an extra Cys-S-tBu (the Bromo group of the PNA reacts to the thiol group of the surface). After removal of the S-tBu (using NaBH4) of the Cys-S-tBu, the coupled PNA has a thiol group on C-terminal end. […]

Q: ADSLYTYPVATQ (BrAc-ADSLYTYPVATQ-NH2) was tested. Which “recognition by monoclonal antibody-03” value (monoclonal antibody-03) did it give?
A: The value was “recognizes”.

Q: What about the “recognition / binding by monoclonal antibody-01” value (monoclonal antibody-01) of the same substance?
A: Its value is “does not recognize”.

Q: Which “binding of biotinylated DNA to the PNA construct” value [1] does the source give for “GAGGCCTGCTspacer ATGGCACTTC (PNA, spacer, thioether coupling to polypropylene surface, chemistry not fully specified) [PNA construct, construct of PNA1 and PNA2 coupled via thioether on polypropylene surface]” here?
A: The value was “binding”.
